Laboratory results taken from patent US20020090380A1, “Novel formulation comprising thymol useful in the treatment of drug resistant bacterial infections” (priority 2000, published 2002).
Read-outs that look alike come from different tables or passages of the source.

How the values were obtained:
Assay type in all cases: cell-based, Escherichia coli
[1] = tested on: lomefloxacin resistant cells of E. coli
[2] = tested on: E. coli CA 8000 (WT); details: CA 8000 (WT)
[3] = tested on: Nal^R mutants of E. coli; details: 5 μg/ml

SMILES: CCn1cc(C(=O)O)c(=O)c2cc(F)c(N3CCNCC3)cc21 [Aorfloxacin]
- Growth in poison agar medium ([1]; CAL 101, 20 μg/ml): +
- Growth in poison agar medium ([1]; CAL 102, 20 μg/ml): +
- Growth in poison agar medium ([1]; CAL 103, 20 μg/ml): +
- Growth in poison agar medium ([1]; CAL 104, 20 μg/ml): +
- Growth in poison agar medium ([1]; CAL 105, 20 μg/ml): +
- Growth in poison agar medium ([1]; CAL 106, 20 μg/ml): +
- Growth in poison agar medium ([1]; CAL 107, 20 μg/ml): +
- Growth in poison agar medium ([1]; CAL 108, 20 μg/ml): +
- Growth in poison agar medium ([2]; 20 μg/ml, Table 4): −

SMILES: CCn1cc(C(=O)O)c(=O)c2cc3c(cc21)OCO3 [Oxolinic Acid, oxolinic acid]
- Growth in poison agar medium ([1]; CAL 101, 5 μg/ml): +
- Growth in poison agar medium ([1]; CAL 102, 5 μg/ml): +
- Growth in poison agar medium ([1]; CAL 103, 5 μg/ml): +
- Growth in poison agar medium ([1]; CAL 104, 5 μg/ml): +
- Growth in poison agar medium ([1]; CAL 105, 5 μg/ml): +
- Growth in poison agar medium ([1]; CAL 106, 5 μg/ml): +
- Growth in poison agar medium ([1]; CAL 107, 5 μg/ml): +
- Growth in poison agar medium ([1]; CAL 108, 5 μg/ml): +
- Growth in poison agar medium ([2]; 5 μg/ml, Table 2): −
- Growth in poison agar medium ([2]; 5 μg/ml, Table 4): −
- Growth in poison agar medium ([3]; CAN 101): −
- Growth in poison agar medium ([3]; CAN 102): −
- Growth in poison agar medium ([3]; CAN 103): −
- Growth in poison agar medium ([3]; CAN 104): −
- Growth in poison agar medium ([3]; CAN 105): −
- Growth in poison agar medium ([3]; CAN 106): +
- Growth in poison agar medium ([3]; CAN 107): +
- Growth in poison agar medium ([3]; CAN 108): +
- Growth in poison agar medium ([3]; CAN 109): +
- Growth in poison agar medium ([3]; CAN 110): +
- Growth in poison agar medium ([3]; CAN 111): +
- Growth in poison agar medium ([3]; CAN 112): −
- Growth in poison agar medium ([3]; CAN 113): +
- Growth in poison agar medium ([3]; CAN 114): +
- Growth in poison agar medium ([3]; CAN 115): +
- Growth in poison agar medium ([3]; CAN 116): +
- Growth in poison agar medium ([3]; CAN 117): +
- Growth in poison agar medium ([3]; CAN 118): +
- Growth in poison agar medium ([3]; CAN 119): −
- Growth in poison agar medium ([3]; CAN 120): −
- Growth in poison agar medium ([3]; CAN 121): +
- Growth in poison agar medium ([3]; CAN 122): +
- Growth in poison agar medium ([3]; CAN 123): +
- Growth in poison agar medium ([3]; CAN 124): +
- Growth in poison agar medium ([3]; CAN 125): +
- Growth in poison agar medium ([3]; CAN 126): +

SMILES: C[C@@H]1CN(c2c(F)c(N)c3c(=O)c(C(=O)O)cn(C4CC4)c3c2F)C[C@H](C)N1 [Sparfloxacin]
- Growth in poison agar medium ([1]; CAL 101, 20 μg/ml): +
- Growth in poison agar medium ([1]; CAL 102, 20 μg/ml): +
- Growth in poison agar medium ([1]; CAL 103, 20 μg/ml): +
- Growth in poison agar medium ([1]; CAL 104, 20 μg/ml): +
- Growth in poison agar medium ([1]; CAL 105, 20 μg/ml): +
- Growth in poison agar medium ([1]; CAL 106, 20 μg/ml): +
- Growth in poison agar medium ([1]; CAL 107, 20 μg/ml): +
- Growth in poison agar medium ([1]; CAL 108, 20 μg/ml): +
- Growth in poison agar medium ([2]; 5 μg/ml, Table 2): −
- Growth in poison agar medium ([2]; 20 μg/ml, Table 4): −
- Growth in poison agar medium ([3]; CAN 101): +
- Growth in poison agar medium ([3]; CAN 102): +
- Growth in poison agar medium ([3]; CAN 103): +
- Growth in poison agar medium ([3]; CAN 104): +
- Growth in poison agar medium ([3]; CAN 105): +
- Growth in poison agar medium ([3]; CAN 106): +
- Growth in poison agar medium ([3]; CAN 107): +
- Growth in poison agar medium ([3]; CAN 108): +
- Growth in poison agar medium ([3]; CAN 109): +
- Growth in poison agar medium ([3]; CAN 110): +
- Growth in poison agar medium ([3]; CAN 111): +
- Growth in poison agar medium ([3]; CAN 112): +
- Growth in poison agar medium ([3]; CAN 113): +
- Growth in poison agar medium ([3]; CAN 114): +
- Growth in poison agar medium ([3]; CAN 115): +
- Growth in poison agar medium ([3]; CAN 116): +
- Growth in poison agar medium ([3]; CAN 117): +
- Growth in poison agar medium ([3]; CAN 118): +
- Growth in poison agar medium ([3]; CAN 119): +
- Growth in poison agar medium ([3]; CAN 120): +
- Growth in poison agar medium ([3]; CAN 121): +
- Growth in poison agar medium ([3]; CAN 122): +
- Growth in poison agar medium ([3]; CAN 123): +
- Growth in poison agar medium ([3]; CAN 124): +
- Growth in poison agar medium ([3]; CAN 125): +
- Growth in poison agar medium ([3]; CAN 126): +
